Data on one molecule can be found in patent US9617517B2, “Small chemical compound which promotes induction of differentiation of stem cells into insulin-producing cells and method for inducing differentiation of stem cells into insulin-producing cells using said small chemical compound” (NATIONAL UNIVERSITY CORPORATION KUMAMOTO UNIVERSITY, priority 2011, dated 2017).

Assay [1] concerns VMAT2KD ES cells. Briefly: c-peptide amount of differentiated VMAT2KD ES cells (ELISA). The assay is classed as cell-based, mouse. The following applies: dBu-cAMP 0.6 μM (FIG. 12A). How it is done: (§1) In the Vmat2-knockdown and Drd2-knockdown assays, Expression Arrest non-silencing control shRNA (Open Biosystems, #RHS4080), Vmat2 hRNA (Open Biosystems, #RMM3981-97058457 and #RMM3981-97058458) or Drd2 hRNA (Open Biosystems, #RMM3981-9594258) lentiviral vectors were used. For virus preparation, HEK293-FT cells (Invitrogen) were seeded on a plate medium the day before transfection. After overnight culture, the cells were transfected with lentiviral vectors and ViraPower™ Lentiviral Packaging Mix (Invitrogen) using FuGENE6 Transfection Reagent (Roche) according to the manufacturer's protocol. Cells were incubated in the ES maintenance medium for 24 hours, and viral supernatants were collected. Then, SK7 cells were infected with the viral supernatants. After incubation for 24 hours, the virus-containing medium was replaced with fresh ES maintenance medium. Further 24 hours later, the infected cells were selected using […] puromycin. The surviving cells were cloned as a knockdown-cell lines.
Differentiated ES cells were pre-incubated for 4 hours in low glucose (5.5 mM) Dulbecco's modified minimal essential medium with 1% fetal bovine serum. […] Insulin secretion into the culture medium and insulin content of the cell lysate were measured using the mouse c-peptide ELISA kit (Shibayagi. Co. Ltd., Japan). […]

In assay [2] the test system is VMAT2KD ES cells. Briefly: Differentiation into insulin-expressing cells in vesicular monoamine transporter knock-down cell line. The assay is classed as cell-based, mouse. The following applies: VMAT2KD cells with dBu-cAMP 0.63 μM; control = normal cells without cAMP analog (FIG. 11A). How it is done: as §1
Drd2 is known as a G protein-coupled receptor activating Gαi/o protein and having an inhibiting activity against adenyl cyclase. To identify the intracellular signal transduction phenomenon by Drd2, the effect of cAMP was examined. […] This enhancement was stronger than that obtained when dBu-cAMP was added to VMAT2KD ES cells (FIG. 10). […]

The structures appear in SMILES notation.

Consider `CCCC(=O)Nc1ncnc2c1ncn2[C@@H]1O[C@@H]2COP(=O)(O)O[C@H]2[C@H]1OC(=O)CCC` [Dibutyryl- cAMP, dibutyrate-cAMP], for which, in the assay on VMAT2KD ES cells [1], the “c-peptide amount of differentiated cells” value was “large increase in the c-peptide amount”. For the same molecule, the “increase of number of insulin-expressing cells” value with VMAT2KD ES cells [2] amounted to 31.4 fold.
